Test results: patent US20140221390A1, “PROPHYLACTIC AND/OR THERAPEUTIC AGENT FOR NON-ALCOHOLIC STEATOHEPATITIS” (Kowa Company, Ltd., priority 2010, published 2014)
Counter-ions that a name gives are not always drawn.

Columns and labels:
Format in all cases: in vivo
KK-A^y mice = assay: Effect in KK-Ay mice fed with MCD diet (NASH model); conditions: 7 weeks
Source text: Rodent models fed with methionine-choline deficient diet (MCD diet) are widely used as NASH models (See Hebbard L, George J.: Animal models of nonalcoholic fatty liver disease Nat Rev Gastroenterol Hepatol. 2011 January; 8 (1):35-44. Epub 2010 Nov. 30.). Among them, models of KK-A^y mice are known to cause marked steatohepatitis and fibrosis (See Okumura K., Ikejima K., Kon K., Abe W., Yamashina S., Enomoto N., Takei Y. and Sato N. (2006) Exacerbation of dietary steatohepatitis and fibrosis in obese, diabetic KK-A^y mice Hepatology Research 2006 36:3 (217-228)). It is considered that the mice are excellent models to examine the drug effect on NASH.
Male KK-A^y mice (KK-A^y/TaJcl mice, 12 weeks old, were purchased from CLEA Japan, Inc.) were used for the experiment. The mice were fed with the MCD diet for 7 weeks to cause NASH.
The mice were separated into a control group, a compound A (30 mg/kg) administered group, and a compound A (200 mg/kg) administered group. The drug and feeds were mixed to feed the mice. The dosing period was 7 weeks.
The compound A and feeds were mixed to feed the mice. The mice was fed with the MCD diet, and fed with the feed mixture at the same time.
The methods were performed, in the same manner as in the case of the murine NASH-hepatoma models described in Example 2. In addition to the HE-stained specimens for observing liver tissues, Azan-stained specimens were also prepared.

[1] = test system: LDL receptor-knockout mice; assay: Effect in LDL receptor-knockout mouse NASH model (Western diet); conditions: 12 weeks
Source text: An effect in LDL receptor-knockout mice fed with the Western diet which were known to develop fatty liver and hepatic inflammation, i.e., characteristic conditions of NASH (Yoshimatsu M. et al. Int J Exp Pathol., 85(6), 335-43 (2004)) was examined. In the present test, monohydrochloride of 2-[4-[2-(benzimidazol-2-ylthio)ethyl]piperazin-1-yl]-N-[2,4-bis(methylthio)-6-methyl-3-pyridyl]acetamide (hereinafter referred to as “compound A”) was used.
Male LDL receptor-knockout mice (B6.129S7-Ldlr<tm1Her>/J, Jackson Laboratories) were used for the experiment. The mice aged around 8 weeks were allowed to freely intake Teklad Custom Research Diet (TD.88137, manufactured by Harlan Teklad) as a Western diet for 12 weeks to cause them to develop NASH.
The mice were separated into a control group (hydrochloride added purified water) and a compound A (3 mg/kg, as free form) administered group so that there is no difference in the weights between the groups.
The dose was calculated by 10 mL/kg weight. Hydrochloride added purified water and each drug solution were orally administered to the control group and the compound A administered group, respectively, at an interval of at least 6 hours, once in the morning and once in the afternoon. The mice aged around 8 weeks were fed with the Western diet, and the drug solution was administered at the same time. The dosing period was 12 weeks.
After the end of administration, the mice were fasted overnight. The blood was collected from the abdominal portion of vena cava under anesthesia with pentobarbital sodium (50 mg/kg) and the plasma was fractionated. After collecting the blood, the liver was extracted and frozen for preservation. A part of the liver was frozen in ISOGEN (NIPPON GENE, CO., LTD.) and preserved to analyze the gene expression.
Total cholesterol (TC) and triglyceride (TG) in the plasma were measured using Cholesterol E Test Wako and Triglyceride E Test Wako (both manufactured by Wako Pure Chemical Industries, Ltd.), respectively. Measurement of liver lipid was performed in the following manner. Chloroform and methanol (at a ratio of 2:1) were added to the frozen and preserved liver, which was homogenized, and the resultant mixture was allowed to stand at 4° C. longer than overnight, followed by filtration. A part of the filtrate was fractionated, followed by evaporation and drying. The resultant product was dissolved in isopropanol. TC and TG concentrations were measured using Cholesterol E-Test Wako and Triglyceride E-Test Wako, respectively.
Liver gene expression analysis was performed by extracting RNA from the liver and measuring expression levels of TNF-α genes and CD11c genes in adhesion molecules belonging to an integrin family of macrophages by realtime RT-PCR. The liver was homogenized in ISOGEN to extract RNA according to the instruction manual. The concentration of RNA was measured using a spectrophotometer (ND-1000, NanoDrop Technologies, Inc.). Reverse transcription of mRNA from total RNA was performed using High Capacity cDNA Reverse Transcription Kit (Applied Biosystems) to synthesize cDNA. Gene expression analysis was performed by an intercalator method using SYBR green I or a method using Taqman Probe. Realtime RT-PCR was performed using 7900HT Fast Real-Time PCR System (Applied Biosystems). β-actin was used as an internal standard. After correction with β-actin, the expression levels of respective genes were compared with one another. The sequences of the used primers and probes are as follows: […]
The statistical work was performed using the Windows (registered trademark) version of the SAS Preclinical Package (SAS Institute Japan Inc.).

C57BL/6N-NASH mice = assay: Effect in murine NASH-hepatoma models (C57BL/6N-NASH mice); conditions: 100 mg/kg mixed in feed, 5 weeks
Source text: Murine NASH-hepatoma models (brand name: C57BL/6 N-NASH mice) developed in Stelic Institute & Co. (See Japanese Patent Application Laid-Open (JP-A) No. 2009-178143) are provided by Charles River Laboratories Japan, Inc. The murine models develop NASH by initiation of insulin resistance and feeding with a high fat diet. The murine models show changes which histologically reflect the conditions of human NASH. The fatty liver (before 6 weeks old) progresses to NASH (7 weeks old), liver cirrhosis (after 10 weeks old), and liver cancer (after 16 weeks old). Accordingly, it is said that the models are useful in research and development of therapeutic drugs for NASH (See Data of SIAM Mice C57BL/6N-NASH Model Mice (http://www.crj.co.jp/topics/pdf/69/6375030/B6N_NASH_leaflet—091019.pdf)).
Then, the effect of the compound A was examined using murine NASH-hepatoma models with a more serious condition than the knockout mice used in Example 1.
Male C57BL/6N-NASH mice (Charles River Laboratories Japan, Inc.) were used for the experiment. Streptozotocin was administered to the mice aged 1 to 2 days and they were fed with a high fat diet (D12492, Research Diet) from 4 weeks old. The mice were purchased at 6 weeks old and continuously fed with the same high fat diet (hereinafter, the mice are referred to as “C57BL/6N-NASH mice”). As a normal control group, normal mice (C57BL/6N, 6 weeks old, Charles River Laboratories Japan, Inc.) were purchased at the same time and they were fed with an ordinary diet (CE-2, CLEA Japan, Inc.) (hereinafter referred to as “normal mice”).
C57BL/6N-NASH mice were used for a control group and a compound A (100 mg/kg) administered group. The number of mice in each group was six. As normal mice (control group), 6 normal mice (C57BL/6N mice) were used.
The compound A and feeds were mixed to feed the mice. C57BL/6N-NASH mice with NASH aged 7 weeks were fed with the feed mixture. The dosing period was 5 weeks.
After the end of administration, the mice were fasted for 4 hours. The blood was collected from the abdominal portion of vena cava under anesthesia, and the plasma was fractionated. After collecting the blood, the liver was extracted. A part of the liver was frozen for preservation, and the other part was embedded in paraffin in a usual manner. Plasma lipid and plasma ALT levels were measured using an autoanalyzer (Labospect003, Hitachi, Ltd.). Measurement of liver lipid was performed in the following manner. That is, chloroform and methanol (at a ratio of 2:1) were added to a part of the frozen and preserved liver, which was homogenized, and the resultant mixture was allowed to stand at 4° C. overnight, followed by filtration. A part of the filtrate was fractionated, followed by evaporation and drying. The resultant product was dissolved in isopropanol. The concentrations of total cholesterol (TC) and triglyceride (TG) were measured using Cholesterol E-Test Wako and Triglyceride E-Test Wako, respectively. Further, paraffin sections and HE-stained specimens were produced to observe liver tissues.

SMILES: CSc1cc(C)nc(SC)c1NC(=O)CN1CCN(CCSc2nc3ccccc3[nH]2)CC1 [compound A, monohydrochloride of 2-[4-[2-(benzimidazol-2-ylthio)ethyl]piperazin-1-yl]-N-[2,4-bis(methylthio)-6-methyl-3-pyridyl]acetamide]
- plasma ALT level (KK-A^y mice; 200 mg/kg mixed in feed, FIG. 8): significantly reduced
- plasma lipid (KK-A^y mice; 30 or 200 mg/kg mixed in feed): no effect
- hepatic TC level (KK-A^y mice; mixed in feed, FIG. 9): significantly reduced
- hepatic TG level (KK-A^y mice; mixed in feed, FIG. 10): significantly reduced
- development of lipid-droplet deposition in the liver (HE-stained) (KK-A^y mice; mixed in feed, FIG. 11): inhibited
- development of fibrosis in the liver (Azan-stained) (KK-A^y mice; mixed in feed, FIG. 12): inhibited
- total cholesterol (TC) in the plasma ([1]; 3 mg/kg as free form, oral, twice daily, Western diet, FIG. 1A): no significant effect
- triglyceride (TG) in the plasma ([1]; 3 mg/kg as free form, oral, twice daily, Western diet, FIG. 1B): no significant effect
- total cholesterol (TC) in the liver ([1]; 3 mg/kg as free form, oral, twice daily, Western diet, FIG. 2A): significant decrease
- triglyceride (TG) in the liver ([1]; 3 mg/kg as free form, oral, twice daily, Western diet, FIG. 2B): significant decrease
- macrophage CD11c gene expression in the liver ([1]; 3 mg/kg, realtime RT-PCR, corrected with β-actin, FIG. 3A): significant decreases
- inflammatory cytokine TNF-α expression in the liver ([1]; 3 mg/kg, realtime RT-PCR, corrected with β-actin, FIG. 3B): significant decreases
- plasma lipid (C57BL/6N-NASH mice; from 7 weeks old): no effect
- plasma ALT level (C57BL/6N-NASH mice; vs NASH control group, FIG. 4): reduced
- hepatic TC level (C57BL/6N-NASH mice; vs NASH control group, FIG. 5): reduced
- hepatic TG level (C57BL/6N-NASH mice; vs NASH control group, FIG. 6): reduced
- development of lipid-droplet deposition in liver (HE-stained) (C57BL/6N-NASH mice; FIG. 7): inhibited
